Here are results for 15 compounds from US5935955A, “Pharmaceutical piperazine compounds” (Xenova Limited, priority 1994, dated 1999).

Data set [1] concerns AR 1.0 cells. The data set can be described thus: Drug accumulation assay (tritiated daunorubicin). The following applies: Mus musculus; for IC50: read-out: IC50 accumulation. The data set is classed as cell-based. Here is the method: AR 1.0 cells were seeded into 96 well opaque culture plates (Canberra Packard). The assay medium contained a mixture of tritiated Daunorubicin (DNR), a cytotoxic agent, and unlabelled DNR (0.3 μCi/ml; 2 μM). Compounds of formula I were serially diluted in assay medium over a range of concentrations from 5 nM to 100 μM. The cells were incubated at 37° C. for 1 hr before washing and determination of cell associated radioactivity. Results were expressed as % maximum accumulation where 100% accumulation is that observed in the presence of the known RMA verapamil at 100 μM. Where possible an IC50 was determined.

Data set [2] has as its system AR 1.0 cells. The data set can be described thus: Potentiation index for doxorubicin (doxorubicin titration with fixed concentration of compound). The data set is classed as cell-based, mouse. The method, then: The EMT6 mouse mammary carcinoma cell line and the MDR resistant sublime AR 1.0 were cultured in RPMI 1640 medium containing 10% foetal calf serum and 2 mM glutamine at 37° C. in 5% CO2. Cells were passaged between 1 in 200 and 1 in 2000 in the case of the parental cell line and between 1 in 20 and 1 in 200 in the case of the MDR resistant subline, after trypsinisation (0.25% trypsin, 0.2 gl^-1, EDTA).
Cells were cultured for four days with a titration of doxorubicin (0.01 nm-50 μM) in the presence of a fixed concentration of each compound. Proliferation was quantified as described by Skehan et. al, loc cit. The IC50 (concentration required to reduce proliferation to 50% of the untreated controls) for doxorubicin alone and with each compound were derived and used to calculate the potentiation index (PI): [formula]

Data set [3] has as its system AR 1.0 cells. The data set can be described thus: Potentiation of doxorubicin toxicity (fixed doxorubicin 0.86 μM, proliferation, sulphorhodamine B). The data set is classed as cell-based, mouse. The source says: Compounds of formula (I) were examined for their ability to potentiate the toxicity of doxorubicin in AR 1.0 cells.
For data set [4], the system named is AR 1.0 cells. The data set can be described thus: Compound toxicity (proliferation, sulphorhodamine B). The following applies: Mus musculus, 96 h, read-out: Compound toxicity (IC50). The data set is classed as cell-based.
The next data set has as its system MDR cells. The following applies: in vitro and in vivo; Cancer Res., 41, 1967-1972 (1981); cited from earlier work.
[5] abbreviates: daunorubicin 2 μM, 1 hr at 37° C.
Setting [6] is: RMA at 1 μM, doxorubicin, four days.
The mark [7] stands for this setting: with doxorubicin 0.86 μM, four day incubation, 5760 min, read-out: Toxicity with cytotoxic agent (IC50).
Setting [8] is: compound alone, AR 1.0 cells, four day incubation.

In the case of `Cn1c(=O)/c(=C/c2ccc(C(=O)N3CCN(c4ncccn4)CC3)cc2)[nH]c(=O)/c1=C/c1ccccc1` [Compound 9022, 1-(4-((3Z,6Z)-6-Benzylidene-1-methyl-2,5-dioxo-3-piperazinylidene)methylbenzoyl)-4-(2-pyrimidyl)piperazine], the IC50 with AR 1.0 cells [1] (setting [5]) was found to be 7000 nM; with AR 1.0 cells [3] (setting [7]), 800 nM; in the data set with AR 1.0 cells [4] (setting [8]) it was 35000 nM. Also, in the data set with AR 1.0 cells [2] (setting [6]), the Potentiation index was found to be 5.
On to `Cn1c(=O)/c(=C/c2ccc(C(=O)Nc3ccc(CCN4CCN(c5cccc(C(F)(F)F)c5)CC4)cc3)cc2)[nH]c(=O)/c1=C/c1ccccc1` [Compound 9049, N-(4-(2-(4-(3-Trifluoromethylphenyl)-1-piperazinyl)ethyl)phenyl)-4-((3Z,6Z)-6-benzylidene-1-methyl-2,5-dioxo-3-piperazinylidene)methylbenzamide], for which, in the data set on AR 1.0 cells [1] (1 h, % maximum accumulation, 100% = verapamil at 100 μM, compound 5 nM to 100 μM, read-out: Max accumulation), the Emax came out at 20%. Also, the Potentiation index in the data set with AR 1.0 cells [2] (setting [6]) stood at 15. Moreover, the IC50 in the data set on AR 1.0 cells [4] (setting [8]) was 2000 nM.
For `COc1cc2c(cc1OC)CN(CCc1ccc(NC(=O)c3cccc(/C=c4\[nH]c(=O)/c(=C/c5ccccc5)n(C)c4=O)c3)cc1)CC2.Cl` [Compound 9051, N-(4-(2-(6,7-Dimethoxy-1,2,3,4-tetrahydro-2-isoquinolyl)ethyl)phenyl)-3-((3Z,6Z)-6-benzylidene-1-methyl-2,5-dioxo-3-piperazinylidene)methylbenzamide, hydrochloride], the IC50 in the data set on AR 1.0 cells [1] (1 h) came out at 150 nM; in the data set on AR 1.0 cells [3] (setting [7]), 10 nM; with AR 1.0 cells [4], 2000 nM. The Potentiation index with AR 1.0 cells [2] (setting [6]) stood at 2000.
For `COc1cc2c(cc1OC)CN(Cc1ccc(NC(=O)c3ccc(/C=c4\[nH]c(=O)/c(=C/c5ccccc5)n(C)c4=O)cc3)cc1)CC2.Cl` [Compound 9064, N-(4-(6,7-Dimethoxy-1,2,3,4-tetrahydro-2-isoquinolyl)methylphenyl)-4-((3Z,6Z)-6-benzylidene-1-methyl-2,5-dioxo-3-piperazinylidene)methylbenzamide, hydrochloride], the IC50 in the data set on AR 1.0 cells [1] (setting [5]) is 300 nM; in the data set with AR 1.0 cells [3] (setting [7]), 10 nM; in the data set on AR 1.0 cells [4] (setting [8]), 2000 nM. Moreover, the Potentiation index in the data set with AR 1.0 cells [2] (setting [6]) was 750.
On to `Cn1c(=O)/c(=C/c2ccc(C(=O)Nc3ccc(CCN4CCc5ccccc5C4)cc3)cc2)[nH]c(=O)/c1=C/c1ccccc1` [Compound 9065, N-(4-(2-(1,2,3,4-Tetrahydro-2-isoquinolyl)ethyl)phenyl)-4-((3Z,6Z)-6-benzylidene-1-methyl-2,5-dioxo-3-piperazinylidene)methylbenzamide], for which the figures for the IC50 in the data set on AR 1.0 cells [1] (setting [5]) and in the data set on AR 1.0 cells [4] (setting [8]) were 6000 nM and 2000 nM, respectively. Further, the Potentiation index in the data set on AR 1.0 cells [2] (setting [6]) worked out at 15.
Take `COc1ccc(N2CCN(C(=O)c3ccc(/C=c4\[nH]c(=O)/c(=C/c5ccccc5)n(C)c4=O)cc3)CC2)cc1.Cl` [Compound 9071, 1-(4-((3Z,6Z)-6-Benzylidene-1-methyl-2,5-dioxo-3-piperazinylidene)methylbenzoyl)-4-(4-methoxyphenyl)piperazine, hydrochloride]: the IC50 in the data set on AR 1.0 cells [1] (setting [5]) worked out at 6000 nM; in the data set with AR 1.0 cells [3] (setting [7]) it was 200 nM; with AR 1.0 cells [4] (setting [8]) it was 6000 nM. For the same compound, the Potentiation index in the data set with AR 1.0 cells [2] (setting [6]) came out at 4.
`Cn1c(=O)/c(=C/c2ccc(C(=O)Nc3ccc(CCN4CCC(O)(c5ccc(Cl)cc5)CC4)cc3)cc2)[nH]c(=O)/c1=C/c1ccccc1` [Compound 9079, N-(4-(2-(4-(4-Chlorophenyl) -4-hydroxypiperidino)ethyl)phenyl)-4-((3Z,6Z)-6-benzylidene-1-methyl-2,5-dioxo-3-piperazinylidene)methylbenzamide]: the IC50 with AR 1.0 cells [1] (setting [5]) amounted to 80000 nM; in the data set on AR 1.0 cells [3] (ar 1.0 cells, 96 h) it was 1700 nM; in the data set with AR 1.0 cells [4] (setting [8]), 2000 nM. Besides, the Potentiation index in the data set with AR 1.0 cells [2] (setting [6]) is 3.
Turning to `Cl.Cn1c(=O)/c(=C/c2ccc(C(=O)Nc3ccc(CN4CCN(c5ccccc5)CC4)cc3)cc2)[nH]c(=O)/c1=C/c1ccccc1` [Compound 9104, N-(4-(4-Phenyl-1-piperazinyl)methylphenyl)-4-((3Z,6Z)-6-benzylidene-1-methyl-2,5-dioxo-3-piperazinylidene)methylbenzamide, hydrochloride], the IC50 with AR 1.0 cells [1] (setting [5]) came out at 5000 nM; in the data set with AR 1.0 cells [4] (setting [8]) it was 40000 nM. Moreover, in the data set on AR 1.0 cells [2] (setting [6]), the Potentiation index was determined as 17.
As to `COc1cc2c(cc1OC)CN(CCNC(=O)c1cccc(/C=c3\[nH]c(=O)/c(=C/c4ccccc4)n(C)c3=O)c1)CC2` [Compound 9136, N-(2-(6,7-Dimethoxy-1,2,3,4-tetrahydro-2-isoquinolyl)ethyl)-3-((3Z,6Z)-6-benzylidene-1-methyl-2,5-dioxo-3-piperazinylidene)methylbenzamide], the results for the IC50 in the data set on AR 1.0 cells [1] (setting [5]), with AR 1.0 cells [3] (setting [7]) and in the data set with AR 1.0 cells [4] (setting [8]) were 900 nM, 2000 nM and 13000 nM, respectively. In the data set with AR 1.0 cells [2] (setting [6]), the Potentiation index turned out to be 25.
On to `COc1ccc(CCN(C)CCc2ccc(NC(=O)c3cccc(/C=c4\[nH]c(=O)/c(=C/c5ccccc5)n(C)c4=O)c3)cc2)cc1OC` [Compound 9138], for which the IC50 was 800 nM in the data set on AR 1.0 cells [1] (setting [5]), 1000 nM in the data set on AR 1.0 cells [3] (setting [7]) and 8000 nM with AR 1.0 cells [4] (setting [8]). For the same compound, the Potentiation index in the data set with AR 1.0 cells [2] (setting [6]) is 333.
Taken in the same sequence, the figures for `CN(CCNC(=O)c1cccc(/C=c2\[nH]c(=O)/c(=C/c3ccccc3)n(C)c2=O)c1)CC(c1ccccc1)c1ccccc1` [Compound 9163, N-(2-(2,2-Diphenylethyl)methylaminoethyl)-3-((3Z,6Z)-6-benzylidene-1-methyl-2,5-dioxo-3-piperazinylidene)methylbenzamide] were 2000 nM, 500 nM, 10000 nM and 6.7.
Taken in the same sequence, the figures for `COc1cc2c(cc1OC)CN(CCc1ccc(COc3ccc(/C=c4\[nH]c(=O)/c(=C/c5ccccc5)n(C)c4=O)cc3)cc1)CC2` [Compound 9176, (3Z,6Z)-6-Benzylidene-3-(4-(4-(2-(6,7-dimethoxy-1,2,3,4-tetrahydro-2-isoquinolyl)ethyl)benzyloxy)benzylidene)-1-methyl-2,5-piperazinedione] were 1000 nM, 200 nM, 10000 nM and 300.0.
Taken in the same sequence, the figures for `COc1cc2c(cc1OC)CN(CCc1ccc(COc3cccc(/C=c4\[nH]c(=O)/c(=C/c5ccccc5)n(C)c4=O)c3)cc1)CC2` [Compound 9177, (3Z,6Z)-6-Benzylidene-3-(3-(4-(2-(6,7-dimethoxy-1,2,3,4-tetrahydro-2-isoquinolyl)ethyl)benzyloxy)benzylidene)-1-methyl-2,5-piperazinedione] were 1750 nM, 500 nM, 15000 nM and 75.0.
For the compound `COc1cc2c(cc1OC)CN(CCc1ccc(C(=O)Nc3ccc(/C=c4\[nH]c(=O)/c(=C/c5ccccc5)n(C)c4=O)cc3)cc1)CC2` [Compound 9190, N-(4-((3Z,6Z)-6-Benzylidene-1-methyl-2,5-dioxo-3-piperazinylidene)methylphenyl)-4-(2-(6,7-dimethoxy-1,2,3,4-tetrahydro-2-isoquinolyl)ethyl)benzamide], the IC50 amounted to 350 nM with AR 1.0 cells [1] (setting [5]), 50 nM in the data set with AR 1.0 cells [3] (setting [7]) and 15000 nM in the data set on AR 1.0 cells [4] (setting [8]). Besides, the Potentiation index in the data set on AR 1.0 cells [2] (measured at 0.01 μM) is 1.4; with AR 1.0 cells [2] (measured at 0.03 μM), 3.3; in the data set with AR 1.0 cells [2] (measured at 0.1 μM), 10.0; in the data set with AR 1.0 cells [2] (measured at 0.3 μM), 75.0.
Consider `COc1ccc(CCN(C)CCCC(C#N)(c2ccc(OC)c(OC)c2)C(C)C)cc1OC` (stereo not drawn) [Verapamil], for which, in the data set on MDR cells, the “sensitisation of MDR cells to Vinca alkaloids” value was “shown to sensitise MDR cells to Vinca alkaloids in vitro and in vivo”.

Usually IC50 stands for the concentration needed to halve the response being measured.
